The results in this text go back to ChEMBL document CHEMBL1135712, “Structure-activity relationships for pyrido-, imidazo-, pyrazolo-, pyrazino-, and pyrrolophenazinecarboxamides as topoisomerase-targeted anticancer agents” (J Med Chem, 2002).

Assay [1] can be described thus: Ratio of IC50 in the cell -doxorubicin-resistant Jurkat (JL D) / JL C. Type of assay: functional.
For assay [2], the system named is NCI-H69. Kind of assay: Inhibitory activity against parental human small cell lung carcinoma cell line (H69P). It counts as functional, cell-based.
The test system of the next assay is P388. Kind of assay: Inhibitory activity against murine P388 leukemia (P388) cells. It counts as functional, cell-based. To be noted: Mus musculus.
A short description of assay [3]: Ratio of IC50 in the cell -amsacrine-resistant Jurkat (JL A) / JL C. Type of assay: functional.
Assay [4] concerns Lewis lung carcinoma cell line. The assay is described as follows: Inhibitory concentration to reduce cell number to 50% in a panel of cultured, murine Lewis lung carcinoma (LL) cells. It counts as functional, cell-based. To be noted: Mus musculus.
Assay [5] in a line: Inhibitory concentration to reduce cell number to 50% in a panel of cultured, wild type human Jurkat leukemia (JL C) cells. It counts as functional, cell-based.
Assay [6] deals with NCI-H69. Kind of assay: Inhibitory activity against drug resistant H69/LX4 line overexpressing P-glycoprotein. It counts as functional, cell-based. To be noted: Homo sapiens.
In the next assay the test system is P388 (Mus musculus). The assay is described as follows: Inhibitory concentration to reduce cell number to 50% in a panel of cultured, murine P388 leukemia (P388) cells.

Some results are limits rather than exact numbers.

For orientation: IC50 means the concentration at which inhibition is half-maximal. As to `CN(C)CCNC(=O)c1cccc2nc3ccc4ncccc4c3nc12`, the Ratio in assay [1] stood at 0.7; in assay [3] it was 0.8. For the same compound, the IC50 was 124 nM with NCI-H69 [2]; 42 nM in the assay with P388; 20 nM in assay [4]; 74 nM in assay [5]; 1.2 nM in the assay on NCI-H69 [6] (read-out: IC50).

On to `CN(C)CCNC(=O)c1cccc2nc3ccc4cnn(C)c4c3nc12`, for which the results for the Ratio in assay [1] and in assay [3] were 1.1 and 1, respectively. The IC50 in the assay on NCI-H69 [2] came out at 109 nM; in the assay on P388 it was 8.4 nM; in assay [4], 5.9 nM; in assay [5], 44 nM; with NCI-H69 [6] (read-out: IC50), 0.92 nM.

In the case of `CN(C)CCNC(=O)c1cccc2nc3ccc4cccnc4c3nc12`, the Ratio in assay [1] was 0.9; in assay [3], 0.7. Further, the IC50 with NCI-H69 [2] was 294 nM; in assay [4], 89 nM; in assay [5], 317 nM; in the assay on NCI-H69 [6] (read-out: IC50), 2.1 nM.

On to `CN(C)CCNC(=O)c1cccc2nc3ccccc3nc12`, for which the Ratio in assay [1] turned out to be 1; in assay [3], 0.8. Also, the IC50 in the assay on P388 was 1100 nM; in assay [4], 1850 nM; in assay [5], 2500 nM.

In the case of `COc1nccc2c1ccc1nc3cccc(C(=O)NCCN(C)C)c3nc12`, the Ratio in assay [1] and in assay [3] was 0.7 in each case. In addition, the IC50 in the assay with NCI-H69 [2] is 21 nM; with P388, 14 nM; in assay [4], 2.4 nM; in assay [5] it was 17 nM; in the assay on NCI-H69 [6] (read-out: IC50) it was 1.2 nM.

As for `COc1cccc2c1ccc1nc3cccc(C(=O)NCCN(C)C)c3nc12`, the results for the IC50 with NCI-H69 [2], in the assay on P388 and with NCI-H69 [6] (read-out: IC50) were 35 nM, 9.4 nM and 1.4 nM, respectively.

For `CN(C)CCNC(=O)c1cccc2nc3ccc4c(cnn4C)c3nc12`, the IC50 in the assay on P388 (Mus musculus) was found to be 59 nM; with NCI-H69 [2], 130 nM; in assay [4] it was 25 nM; in assay [5] it was 98 nM; in the assay on NCI-H69 [6] (read-out: IC50) it was 1.2 nM. The Ratio in assay [1] and in assay [3] was 0.8 in each case.

Consider `CN(C)CCNC(=O)c1cccc2nc3ccc4cnccc4c3nc12`, for which the Ratio worked out at 2.8 in assay [1] and 3 in assay [3]. Also, the IC50 with NCI-H69 [2] worked out at 88 nM; with P388 it was 5.6 nM; in assay [4] it was 6.4 nM; in assay [5], 28 nM; with NCI-H69 [6] (read-out: IC50), 0.64 nM.

Consider `COc1ccnc2c1ccc1nc3cccc(C(=O)NCCN(C)C)c3nc12`, for which the IC50 with NCI-H69 [2] was determined as 123 nM; in the assay with NCI-H69 [6] (read-out: IC50) it was 3.2 nM.

`CN(C)CCNC(=O)c1cccc2nc3ccc4nccnc4c3nc12`: the values for the Ratio in assay [1] and in assay [3] were 0.9 and 1, respectively. For the same compound, the IC50 in the assay with NCI-H69 [2] was 234 nM; in the assay on P388, 85 nM; in assay [4], 54 nM; in assay [5], 165 nM; in the assay with NCI-H69 [6] (read-out: IC50) it was 1.5 nM.

For `CN(C)CCNC(=O)c1cccc2nc3ccc4ccccc4c3nc12`, the figures for the Ratio in assay [1] and in assay [3] were 0.9 and 0.8, respectively. The IC50 in the assay on NCI-H69 [2] was 67 nM; in the assay with P388 it was 37 nM; in assay [4], 23 nM; in assay [5], 93 nM; with NCI-H69 [6] (read-out: IC50) it was 1.9 nM.

With `CN(C)CCNC(=O)c1cccc2nc3ccc4c(O)nccc4c3nc12`, the IC50 turned out to be 133 nM with NCI-H69 [2], 31 nM with P388 and 1.05 nM in the assay with NCI-H69 [6] (read-out: IC50).

Take `CN(C)CCNC(=O)c1cccc2nc3ccc4c[nH]nc4c3nc12`: the IC50 with NCI-H69 [2] turned out to be 524 nM; in the assay on P388, 98 nM; in assay [4] it was 66 nM; in assay [5], 194 nM; with NCI-H69 [6] (read-out: IC50) it was 0.95 nM. The Ratio in assay [3] stood at 1.1.

On to `COc1cccc2c1ccc1nc3cccc(C(=O)N[C@H](C)CN(C)C)c3nc12`, for which the IC50 with NCI-H69 [2] stood at 23 nM; in the assay with P388, 10 nM; in the assay with NCI-H69 [6] (read-out: IC50), 1.2 nM.

On to `COc1cccc2c1C(=O)c1c(O)c3c(c(O)c1C2=O)C[C@@](O)(C(=O)CO)C[C@@H]3O[C@H]1C[C@H](N)[C@H](O)[C@H](C)O1` [DOXORUBICIN], for which the IC50 stood at 9.6 nM in assay [5] and 137 nM in the assay on NCI-H69 [6].

As for `CN(C)CCNC(=O)c1cccc2nc3ccc4[nH]cnc4c3nc12`, the values for the Ratio in assay [1] and in assay [3] were 0.9 and 0.8, respectively. Besides, the IC50 with NCI-H69 [2] was 183 nM; with P388, 300 nM; in assay [4], 41 nM; in assay [5], 159 nM; in the assay on NCI-H69 [6] (read-out: IC50), 5.2 nM.

Regarding `CN(C)CCNC(=O)c1cccc2nc3ccc4[nH]ncc4c3nc12`, the Ratio was 4.7 in assay [1] and 4.2 in assay [3]. For the same compound, the IC50 in the assay on NCI-H69 [2] is 107 nM; in the assay on P388, 6.8 nM; in assay [4], 4.1 nM; in assay [5] it was 21 nM; with NCI-H69 [6] (read-out: IC50), 4.5 nM.

Consider `CN(C)CCNC(=O)c1cccc2nc3ccc4c(O)ccnc4c3nc12`, for which the IC50 in the assay on NCI-H69 [2] was 2100 nM; in the assay with P388, 2700 nM; in the assay on NCI-H69 [6] (read-out: IC50) it was more than 4 nM.

Regarding `COc1nccc2c1ccc1nc3cccc(C(=O)N[C@H](CO)CN(C)C)c3nc12`, the concentration for half-maximal inhibition (IC50) was 24 nM in the assay with NCI-H69 [2] and 1.2 nM in the assay with NCI-H69 [6] (read-out: IC50).

With `CN(C)CCNC(=O)c1cccc2nc3ccc4ccncc4c3nc12`, the Ratio is 1 in assay [1] and 0.8 in assay [3]. Further, the half-maximal inhibitory concentration (IC50) in the assay on NCI-H69 [2] came out at 116 nM; in the assay on P388 it was 16 nM; in assay [4] it was 11 nM; in assay [5], 79 nM; in the assay on NCI-H69 [6] (read-out: IC50) it was 1.3 nM.

Take `CN(C)CCNC(=O)c1cccc2nc3ccc4c(ccn4C)c3nc12`: the IC50 in the assay on NCI-H69 [2] worked out at 183 nM; in the assay on P388, 220 nM; in the assay with NCI-H69 [6] (read-out: IC50) it was 1.7 nM.

As to `COc1nccc2c1ccc1nc3cccc(C(=O)N[C@H](C)CN(C)C)c3nc12`, the IC50 with NCI-H69 [2] was 24 nM; in the assay with NCI-H69 [6] (read-out: IC50), 1.2 nM.
